Reference: patent publication US6552038B1, “Anticoagulant agents” (Eli Lilly and Company, priority 1996, dated 2003)
Structures can show the parent of a compound that is named as a salt.

Legend:
human or animal plasma = test: Anticoagulation determination: thrombin time (TT) in plasma; details: compound added to plasma; linear extrapolation to doubling of thrombin time
Protocol: Dog plasma and rat plasma are obtained from conscious mixed-breed hounds (either sex, hazelton-LRE, Kalamazoo, Mich., U.S.A.) or from anesthetized male Sprague-Dawley rats (Harlan Sprague-Dawley, Inc., Indianapolis, Ind., U.S.A.) by venipuncture into 3.8 percent citrate. Fibrinogen is prepared from in-date ACD human blood as the fraction I-2 according to previous procedures and specifications. Smith, Biochem. J., 185, 1-11 (1980); and Smith, et al., Biochemistry, 11, 2958-2967 (1972). Human fibrinogen is also purchased as 98 percent pure/plasmin free from American Diagnostica, Greenwich, Conn. Coagulation reagents ACTIN, Thromboplastin, and Human plasma are from Baxter Healthcare Corp., Dade Division, Miami, Fla. Bovine thrombin from Parke-Davis (Detroit, Mich.) is used for coagulation assays in plasma.
Coagulation assay procedures are as previously described. Smith, et al., Thrombosis Research, 50, 163-174 (1988). A CoAScreener coagulation instrument (American LABor, Inc.) is used for all coagulation assay measurements. The thrombin time (TT) is measured by adding 0.05 ml saline and 0.05 ml thrombin (10 NIH units/ml) to 0.05 ml test plasma. The activated partial thromboplastin time (APTT) is measured by incubation of 0.05 ml test plasma with 0.05 ml Actin reagent for 120 seconds followed by 0.05 ml CaCl2 (0.02 M). The prothrombin time (PT) is measured by adding 0.05 ml saline and 0.05 ml Thromboplastin-C reagent to 0.05 ml test plasma. The compounds of formula I are added to human or animal plasma over a wide range of concentrations to determine prolongation effects on the TT, APTT and PT assays. Linear extrapolations are performed to estimate the concentrations required to double the clotting time for each assay. Each of the particularly preferred examples of the invention listed above was determined to have a TT value of less than 50 ng/mL. For example, the respective values (in ng/mL) for TT were 6, 6 and 23 for the compounds of Examples 1, 3 and 5.

human thrombin = human thrombin (Homo sapiens, UniProt P00734); test: Inhibition of the amidase activity of thrombin (chromogenic substrate), Kass; format: biochemical; details: purified human thrombin, N-benzoyl-L-Phe-L-Val-L-Arg-p-nitroanilide, pH 7.4; mean value
Protocol: The assay is carried out by mixing 50 μl buffer (0.03M Tris, 0.15M NaCl, pH 7.4) with 25 μl of human thrombin solution (purified human thrombin, Enzyme Research Laboratories, South Bend, Ind., at 8 NIH units/ml) and 25 μl of test compound in a solvent (50% aqueous methanol (v:v)). Then 150 μl of an aqueous solution of the chromogenic substate (at 0.25 mg/ml) are added and the rates of hydrolysis of the substrate are measured by monitoring the reactions at 405 nm for the release of p-nitroaniline. Standard curves are constructed by plotting free thrombin concentration against hydrolysis rate. The hydrolysis rates observed with test compounds are then converted to “free thrombin” values in the respective assays by use of the standard curves. The bound thrombin (bound to test compound) is calculated by subtracting the amount of free thrombin observed in each assay from the known initial amount of thrombin used in the assay. The amount of free inhibitor in each assay is calculated by subtracting the number of moles of bound thrombin from the number of moles of added inhibitor (test compound). […]
Kass is calculated for a range of concentrations of test compounds and the mean value reported in units of liter per mole. […] For example, each of the particularly preferred examples of the invention listed above was determined to have a Kass of at least 100×10^6 L/mole.

[1] = Octanol/water distribution coefficient logD at pH 7.4; format: physicochemical

Compound | TT value (concentration required to double the clotting time, thrombin time) (human or animal plasma) [ng/mL] | Kass (hypothetical equilibrium constant for the reaction between thrombin and the test compound) (human thrombin) | logD(7.4) [1]
N=C(N)c1ccc(CNC(=O)[C@@H]2CCCN2C(=O)[C@H](N)CC2CCCCC2)cc1O [Example 1, D-cyclohexylalanyl-N-[[4-(aminoiminomethyl)-3-hydroxyphenyl]methyl]-L-prolinamide dihydrochloride] | 6 | – | –
Cl.N=C(N)c1ccc(CNC(=O)[C@@H]2CCCN2C(=O)[C@@H](CC2CCCCC2)NCC(=O)O)cc1O [Example 3, N-carboxymethyl-D-cyclohexylalanyl-N-[[4-(aminoiminomethyl)-3-hydroxyphenyl]methyl]-L-prolinamide hydrochloride] | 6 | 1,200×10^6 L/mole | 0.55
CCS(=O)(=O)N[C@H](CC1CCCCC1)C(=O)N1CCC[C@H]1C(=O)NCc1ccc(C(=N)N)c(O)c1 [Example 5, N-ethylsulfonyl-D-cyclohexylalanyl-N-[[4-(aminoiminomethyl)-3-hydroxyphenyl]methyl]-L-prolinamide hydrochloride] | 23 | – | –
